Data on two molecules can be found in patent publication US5840684A, “Glycopeptide antibiotic derivatives” (Eli Lilly and Company, priority 1995, dated 1998).

Molecules are shown by their SMILES. Values after ≈ are worked out from the molar mass of the structure shown.

For test [1], the system named is Staphylococcus aureus S13E. In kind it is cell-based. On the procedure:
(§1) The MIC's were determined using a standard broth micro-dilution assay.

For test [2], the system named is Staphylococcus aureus SA1199B. It is filed as cell-based. On the procedure:
as §1

The subject of test [3] is Entercoccus faecium 180-1. Description: broth micro-dilution MIC. In kind it is cell-based. On the procedure:
as §1

The subject of test [4] is Entercoccus faecium 276. Description: broth micro-dilution MIC. In kind it is cell-based. On the procedure: as §1
The test system of test [5] is Staphylococcus aureus 446. Description: broth micro-dilution MIC. It is filed as cell-based. On the procedure: as §1
In test [6] the test system is Staphylococcus aureus 447. Description: broth micro-dilution MIC. It is filed as cell-based. On the procedure: as §1
Test [7] has as its system Staphylococcus aureus 489. Description: broth micro-dilution MIC. In kind it is cell-based. On the procedure:
as §1

The subject of test [8] is Staphylococcus aureus 491. Description: broth micro-dilution MIC. It is filed as cell-based. On the procedure:
as §1

The subject of test [9] is Staphylococcus aureus SA1199A. Description: broth micro-dilution MIC. In kind it is cell-based. On the procedure: as §1
Test [10] concerns Staphylococcus aureus SA1199. Description: broth micro-dilution MIC. It is filed as cell-based. On the procedure:
as §1

Test [11] relates to Staphylococcus aureus X400. Description: broth micro-dilution MIC. It is filed as cell-based. On the procedure: as §1
Test [12] deals with Staphylococcus aureus X778. Description: broth micro-dilution MIC. In kind it is cell-based. On the procedure:
as §1

Test [13] has as its system Streptococcus pyogenes C203. Description: broth micro-dilution MIC. In kind it is cell-based. On the procedure:
as §1

The subject of test [14] is Entercoccus faecium 180. Description: broth micro-dilution MIC. It is filed as cell-based. The note with it: Entercoccus faecium 180. On the procedure: (§2) The formula I compounds have in vitro and in vivo activity against Gram-positive pathogenic bacteria. The MIC's were determined using a standard broth micro-dilution assay.
In test [15] the test system is Entercoccus faecium 2041. Description: broth micro-dilution MIC. In kind it is cell-based. Conditions: Entercoccus faecium 2041. On the procedure: as §2
In test [16] the test system is Enterococcus gallinarum 245. Description: broth micro-dilution MIC. Conditions: Enterococcus gallinarum 245. In kind it is cell-based. On the procedure:
as §2

Test [17] deals with Haemophilus influenzae RD. Description: broth micro-dilution MIC. In kind it is cell-based. The note with it: Haemophilus influenzae RD. On the procedure:
as §2

The subject of test [18] is Staphylococcus epidermidis 270. Description: broth micro-dilution MIC. It is filed as cell-based. On the procedure:
as §2

Test [19] has as its system Staphylococcus haemolyticus 105. Description: broth micro-dilution MIC. It is filed as cell-based. On the procedure: as §2
Test [20] deals with Staphylococcus haemolyticus 415. Description: broth micro-dilution MIC. It is filed as cell-based. On the procedure:
as §2

For test [21], the system named is Streptococcus pneumoniae P1. Description: broth micro-dilution MIC. It is filed as cell-based. On the procedure:
as §2

Test [22] deals with vancomycin-resistant enterococci. Description: broth micro-dilution, mean geometric MIC. It is filed as cell-based, Enterococcus faecium and Enterococcus faecalis. Conditions: enterococci, 24-hour incubation.
Test [23] relates to vancomycin-susceptible enterococci. Description: broth micro-dilution, mean geometric MIC. It is filed as cell-based, Enterococcus faecium and Enterococcus faecalis. Conditions: enterococci, 24-hour incubation.

For the molecule `CNC(CC(C)C)C(=O)NC1C(=O)NC(CC(N)=O)C(=O)NC2C(=O)NC3C(=O)NC(C(=O)NC(C(=O)O)c4cc(O)cc(O)c4-c4cc3ccc4O)C(OC3CC(C)(N)C(O)C(C)O3)c3ccc(c(Cl)c3)Oc3cc2cc(c3OC2OC(CO)C(O)C(O)C2OC2CC(C)(NCCCCCCCCOc3ccccc3)C(O)C(C)O2)Oc2ccc(cc2Cl)C1O` (stereo not shown) [Compound 195], the MIC in test [1] was 2 µg/mL (≈ 1.11 µM); in [2] it was 1 µg/mL (≈ 0.557 µM); in test [3] it was at most 0.06 µg/mL; in test [4] it was 0.25 µg/mL (≈ 0.139 µM); in [5] it was 0.5 µg/mL (≈ 0.278 µM); in [6], 1 µg/mL (≈ 0.557 µM). Moreover, the MIC is 1 µg/mL (≈ 0.557 µM) in [7]; 0.5 µg/mL (≈ 0.278 µM) in [8]; at most 0.06 µg/mL in test [9]; 0.5 µg/mL (≈ 0.278 µM) in test [10]; 2 µg/mL (≈ 1.11 µM) in test [11]; 0.5 µg/mL (≈ 0.278 µM) in test [12]. The MIC in test [13] is at most 0.06 µg/mL; in test [14], 0.5 µg/mL (≈ 0.278 µM); in test [15] it was at most 0.06 µg/mL; in test [16], 4 µg/mL (≈ 2.23 µM); in [17], 32 µg/mL (≈ 17.8 µM); in test [18], 0.25 µg/mL (≈ 0.139 µM). The MIC was 1 µg/mL (≈ 0.557 µM) in test [19], 4 µg/mL (≈ 2.23 µM) in [20] and at most 0.06 µg/mL in [21]. The “mean geometric MIC, Vancomycin Resistant Strains” value in test [22] was 2.0 µg/mL. In [23], the “mean geometric MIC, Vancomycin Sensitive Strains” value turned out to be 0.042 µg/mL.
For `CNC(CC(C)C)C(=O)NC1C(=O)NC(CC(N)=O)C(=O)NC2C(=O)NC3C(=O)NC(C(=O)NC(C(=O)O)c4cc(O)cc(O)c4-c4cc3ccc4O)C(OC3CC(C)(N)C(O)C(C)O3)c3ccc(c(Cl)c3)Oc3cc2cc(c3OC2OC(CO)C(O)C(O)C2OC2CC(C)(NCCCCCCCCCCc3ccccc3)C(O)C(C)O2)Oc2ccc(cc2Cl)C1O` (stereo not shown) [Compound 197], the MIC worked out at 2 µg/mL (≈ 1.11 µM) in [1]; 2 µg/mL (≈ 1.11 µM) in test [2]; 0.25 µg/mL (≈ 0.138 µM) in test [3]; 1 µg/mL (≈ 0.553 µM) in test [4]; 1 µg/mL (≈ 0.553 µM) in test [5]; 2 µg/mL (≈ 1.11 µM) in test [6]. In addition, the MIC was determined as 2 µg/mL (≈ 1.11 µM) in [7]; 1 µg/mL (≈ 0.553 µM) in test [8]; 1 µg/mL (≈ 0.553 µM) in test [9]; 2 µg/mL (≈ 1.11 µM) in test [10]; 2 µg/mL (≈ 1.11 µM) in test [11]; 2 µg/mL (≈ 1.11 µM) in [12]. For the same molecule, the MIC in test [13] is at most 0.06 µg/mL; in test [14], 0.5 µg/mL (≈ 0.276 µM); in test [15] it was 0.25 µg/mL (≈ 0.138 µM); in test [16], 4 µg/mL (≈ 2.21 µM); in test [17], 32 µg/mL (≈ 17.7 µM); in [18] it was 0.5 µg/mL (≈ 0.276 µM). In addition, the MIC in test [19] was 1 µg/mL (≈ 0.553 µM); in test [20], 4 µg/mL (≈ 2.21 µM); in test [21] it was at most 0.06 µg/mL. Also, the “mean geometric MIC, Vancomycin Resistant Strains” value in test [22] came out at 1.2 µg/mL. In addition, in [23], the “mean geometric MIC, Vancomycin Sensitive Strains” value amounted to 0.16 µg/mL.
